This is an account of results in ChEMBL document CHEMBL5053522, “Synthesis of 3-octadecanoxypropyl 6-deoxy-6-sulfo-α-d-glucopyranoside (ODSG) as a lipase-resistant SQAP derivative” (2021).

Some results are limits rather than exact numbers.

This test relates to A549. The experiment in a line: Cytotoxicity against human A549 cells assessed as survival rate upto 170 uM by CCK8 assay relative to control. The class given is functional. The settings on record: up to 170 µM.

For the molecule `CCCCCCCCCCCCCCCCCC(=O)OCCCO[C@H]1O[C@H](CS(=O)(=O)[O-])[C@@H](O)[C@H](O)[C@H]1O.[Na+]`, the Activity is on record as 70%.
Consider `CCCCCCCCCCCCCCCCCCOCCCO[C@H]1O[C@H](CS(=O)(=O)[O-])[C@@H](O)[C@H](O)[C@H]1O.[Na+]`, for which the Activity is listed as over 70%.
